Assay results taken from the CheMixHub drug solubility set.

Test: xn = mol fraction of the nth substance listed, in the solute-free solvent

O=C1NS(=O)(=O)c2ccccc21 + CO + CC#N
solubility (g/100 g solution)
Details | x2 = 0.1002 | x2 = 0.2003 | x2 = 0.2998 | x2 = 0.4002 | x2 = 0.4998 | x2 = 0.6003 | x2 = 0.7001 | x2 = 0.7995 | x2 = 0.9003
293.15 K | 5.52 | 7.2 | 8.84 | 9.66 | 10 | 10.1 | 9.63 | 8.67 | 7.25
298.15 K | 5.88 | 7.96 | 9.73 | 10.6 | 11 | 11.1 | 10.6 | 9.56 | 8.07
303.15 K | 6.65 | 9.04 | 10.9 | 11.9 | 12.5 | 12.5 | 12.1 | 11 | 9.1
308.15 K | 7.35 | 9.93 | 12.1 | 13.2 | 13.8 | 14 | 13.6 | 12.1 | 10.1
313.15 K | 8.31 | 11.2 | 13.3 | 14.7 | 15.4 | 15.6 | 15.1 | 13.9 | 11.7
318.15 K | 9.32 | 12.7 | 15.2 | 16.8 | 17.6 | 17.7 | 17.2 | 15.8 | 13.3
323.15 K | 10.6 | 14.1 | 16.7 | 18.4 | 19.3 | 19.6 | 19.1 | 17.6 | 15.1

CC(=O)Nc1ccc(OC(=O)c2ccccc2OC(C)=O)cc1 + CN1CCCC1=O + O
solubility (g/100 g solution)
Details | 278.15 K | 283.15 K | 288.15 K | 293.15 K | 298.15 K | 303.15 K | 308.15 K | 313.15 K | 318.15 K
x2 = 0.0198 | 0.0101 | 0.0143 | 0.02 | 0.0278 | 0.0388 | 0.0522 | 0.0688 | 0.0923 | 0.122
x2 = 0.04347 | 0.0672 | 0.0901 | 0.121 | 0.159 | 0.209 | 0.268 | 0.349 | 0.446 | 0.569
x2 = 0.07228 | 0.275 | 0.355 | 0.448 | 0.581 | 0.725 | 0.903 | 1.13 | 1.39 | 1.7
x2 = 0.1081 | 0.8 | 0.998 | 1.25 | 1.51 | 1.85 | 2.22 | 2.69 | 3.19 | 3.81
x2 = 0.1538 | 1.62 | 1.95 | 2.37 | 2.85 | 3.4 | 4.01 | 4.67 | 5.48 | 6.35
x2 = 0.2143 | 2.87 | 3.37 | 3.94 | 4.63 | 5.38 | 6.15 | 7.12 | 8.13 | 9.18
x2 = 0.2979 | 4.29 | 4.95 | 5.76 | 6.59 | 7.51 | 8.56 | 9.7 | 10.8 | 12.1
x2 = 0.421 | 5.72 | 6.53 | 7.43 | 8.43 | 9.49 | 10.7 | 11.8 | 13.2 | 14.5
x2 = 0.6207 | 6.55 | 7.48 | 8.44 | 9.55 | 10.7 | 11.9 | 13.3 | 14.7 | 16.1

O=c1ccc2ccccc2o1 + CO + O
solubility (g/100 g solution)
Details | 278.15 K | 283.15 K | 288.15 K | 293.15 K | 298.15 K | 303.15 K | 308.15 K | 313.15 K | 318.15 K
x2 = 0.1 | 0.0349 | 0.0594 | 0.105 | 0.171 | 0.28 | 0.435 | 0.655 | 0.988 | 1.41
x2 = 0.2 | 0.147 | 0.236 | 0.385 | 0.598 | 0.922 | 1.43 | 2.06 | 3.08 | 4.3
x2 = 0.3 | 0.262 | 0.479 | 0.869 | 1.6 | 2.58 | 4.47 | 7.35 | 12.8 | 19.9
x2 = 0.4 | 0.573 | 1.11 | 1.99 | 3.53 | 6.25 | 10.8 | 17.7 | 28.7 | 41.9
x2 = 0.5 | 1.13 | 1.96 | 3.86 | 6.41 | 11.2 | 18.6 | 28.4 | 43.2 | 59.6
x2 = 0.6 | 1.82 | 3.3 | 5.98 | 9.8 | 16 | 24.8 | 38.3 | 52.1 | 67
x2 = 0.7 | 2.64 | 4.53 | 7.8 | 12.7 | 20.2 | 30.4 | 42.9 | 59.2 | 73.3
x2 = 0.8 | 3.28 | 5.51 | 9.32 | 15.7 | 22.1 | 34.3 | 46.8 | 62.9 | 77.3
x2 = 0.9 | 4.13 | 6.53 | 11.1 | 17.5 | 25.5 | 36.7 | 50.3 | 65.3 | 79.6
